Values of other authors, collected in article PMC4393105, “tRNA^Glu Increases the Affinity of Glutamyl-tRNA Synthetase for Its Inhibitor Glutamyl-Sulfamoyl-Adenosine, an Analogue of the Aminoacylation Reaction Intermediate Glutamyl-AMP: Mechanistic and Evolutionary Implications” (PLoS ONE, 2015).
Like-named read-outs stand apart in the source and are kept apart here.

What was measured:
[1] = molecular target: PheRS from baker’s yeast; conditions: read-out: K d aa-AMP aaRS, cited from earlier work
[2] = molecular target: ThrRS from yeast mitochodria; set-up: method as in PMID 22773845; conditions: read-out: K d aa-AMP aaRS; cited from earlier work
[3] = test system: IleRS from E. coli; set-up: method as in earlier work; conditions: reviewed by Fersht, 1998, 48; cited from earlier work

Nc1ncnc2c1ncn2[C@@H]1O[C@H](COP(=O)(O)OC(=O)[C@@H](N)Cc2ccccc2)[C@@H](O)[C@H]1O [Phe-AMP]
Kd ([1]; cognate aa-AMP): 5 nM

Nc1ncnc2c1ncn2C1OC(COS(=O)(=O)NC(=O)[C@@H](N)CO)[C@@H](O)[C@H]1O (some centres unmarked) [Ser-AMS, Seryl-sulfamoyl-adenosine]
Kd [2]: 450 nM

C[C@@H](O)[C@H](N)C(=O)NS(=O)(=O)OC[C@@H]1O[C@H](n2cnc3c(N)ncnc32)[C@@H](O)[C@H]1O [Thr-AMS, Threonyl-sulfamoyl-adenosine]
Kd [2]: 4.5 nM

Nc1ncnc2c1ncn2[C@@H]1O[C@H](COP(=O)(O)OC(=O)[C@@H](N)Cc2ccc(O)cc2)[C@@H](O)[C@H]1O [Tyr-AMP, tyrosyl-AMP]
Kd ([1]; non-cognate aa-AMP): 1000 nM

CC(C)[C@H](N)C(=O)OP(=O)(O)OC[C@H]1O[C@@H](n2cnc3c(N)ncnc32)[C@H](O)[C@@H]1O [Val-AMP, valyl-adenylate]
fold weaker affinity than Ile-AMP [3]: This IleRS binds Val-AMP with a 150-fold weaker affinity than Ile-AMP.
